Consider 34 compounds from US20240174647A1 (NEURON23, INC., priority 2022, published 2024).

In the assay the target is wt human LRRK2, catalytic site (Homo sapiens (Human), UniProt Q5S007). The experiment in a line: TR-FRET LanthaScreen Tb Kinase Activity Assay (LRRK2 kinase inhibition). To be noted: 2 nM wt human LRRK2, 400 nM fluorescein-ERM (LRRKtide) peptide, 38 μM ATP, 120 minutes at room temperature. Format: biochemical. The protocol: The compounds in Table 1 were tested for their inhibitory effect on LRRK2 kinase according to the following procedures.
wt human LRRK2, catalytic site, sequence (Q5S007 1879-2138): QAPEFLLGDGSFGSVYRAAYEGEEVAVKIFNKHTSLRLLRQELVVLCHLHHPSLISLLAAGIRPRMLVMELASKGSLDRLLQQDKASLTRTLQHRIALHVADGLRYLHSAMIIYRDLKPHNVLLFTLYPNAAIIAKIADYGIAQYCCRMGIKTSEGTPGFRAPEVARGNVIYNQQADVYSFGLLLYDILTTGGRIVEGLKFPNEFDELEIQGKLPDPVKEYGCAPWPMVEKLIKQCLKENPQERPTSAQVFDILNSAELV
The protocol for basic TR-FRET LanthaScreen Tb Kinase Activity Assay inhibitor studies were as follows. LanthaScreen Kinase Activity Assays (ThermoFisher/USA) to evaluate inhibitors were performed by addition of 100 nL of test compound in corresponding DMSO dilutions/5 μL of kinase/fluorescein-ERM(LRRKtide) peptide mixture, 5 μL of ATP into 384 well small volume plates. After incubation for 120 minutes at room temperature, the detection reagents containing Tb-anti-pLRRKtide antibody were added to monitor phosphrylation level of peptide. Then, after 60 min minutes incubation at room temperature plates were read in Envision. Data analysis of emission ratios was according to LanthaScreen Tb Kinase Activity Assay protocol.
Kinase and assay components were adjusted to final concentrations according to the kit protocol. For LRRK2: 2 nM wt human LRRK2, catalytic site, catalytic site (ThermoFisher/USA), 400 nM peptide, 38 μM ATP in 1× Kinase Buffer A.
Basic protocol for TR-FRET LanthaScreen Tb Kinase Activity Assay inhibitor studies involved two steps: • Enzymatic step: Addition of 100 nL of test compound in corresponding DMSO dilutions, 5 μL of kinase/substrate mixture, 5 μL of ATP into 384 well small volume plates. Incubation for 120 minutes at room temperature. • Detection step: Addition of 10 μL EDTA & antibody, read plate after 60 minutes. Data analysis of emission ratios according to KinEASE assay protocol.
Kinase and assay components were adjusted to final concentrations according to the kit protocol.
In the table below, activity is provided as follows: +++=IC50 less than 50 nM; ++=IC50 between 50 nM and 200 nM; +=IC50>=200 nM

For orientation: IC50 means the concentration at which inhibition is half-maximal. Read a low IC50 as greater potency in that assay. With `CC(C)(C#N)n1ncc2c(Nc3ncc(C(F)(F)F)c(NC4CC(O)C4)n3)cccc21` (stereo not shown) [Example 157, 2-[4-[[4-[(3-hydroxycyclobutyl)amino]-5-(trifluoromethyl)pyrimidin-2-yl]amino]indazol-1-yl]-2-methyl-propanenitrile], the half-inhibitory concentration (IC50) was below 50 nM. On to `CNc1nc(Nc2ccc3cn[nH]c3c2C)ncc1C(F)(F)F` [Example 5, N4-methyl-N2-(7-methyl-1H-indazol-6-yl)-5-(trifluoromethyl)pyrimidine-2,4-diamine], for which the IC50 was below 50 nM. In turn, `CNc1nc(Nc2cccc3[nH]nc(C)c23)ncc1C(F)(F)F` [Example 48, N4-methyl-N2-(3-methyl-1H-indazol-4-yl)-5-(trifluoromethyl)pyrimidine-2,4-diamine] displayed a half-maximal inhibitory concentration (IC50) of 50 to 200 nM. The compound `CNc1nc(Nc2cc3[nH]ncc3cc2Cl)ncc1C(F)(F)F` [Example 116] yielded a half-maximal inhibitory concentration (IC50) below 50 nM. As to `CNc1nc(Nc2ccc3c(Br)n[nH]c3c2)ncc1C(F)(F)F` [Example 7, N2-(3-bromo-1H-indazol-6-yl)-N4-methyl-5-(trifluoromethyl)pyrimidine-2,4-diamine], the IC50 was below 50 nM.

`CNc1nc(Nc2cccc3c2CC(=O)N3)ncc1C(F)(F)F` [Example 127, 4-[[4-(methylamino)-5-(trifluoromethyl)pyrimidin-2-yl]amino]indolin-2-one] displayed an IC50 below 50 nM. The compound `CNc1nc(Nc2ccc(CC#N)c3c2cnn3C)ncc1C(F)(F)F` [Example 55, 2-(1-methyl-4-((4-(methylamino)-5-(trifluoromethyl)pyrimidin-2-yl)amino)-1H-indazol-7-yl)acetonitrile] displayed an IC50 below 50 nM. The compound `CNc1nc(Nc2c(F)ccc3nn(C)cc23)ncc1C(F)(F)F` [Example 41, N2-(5-fluoro-2-methyl-2H-indazol-4-yl)-N4-methyl-5-(trifluoromethyl) pyrimidine-2,4-diamine] showed an IC50 of at least 200 nM. Consider `C=Cc1cc2cn[nH]c2cc1Nc1ncc(C(F)(F)F)c(NC)n1` [Example 120, N^4-methyl-5-(trifluoromethyl)-N^2-(5-vinyl-1H-indazol-6-yl)pyrimidine-2,4-diamine], for which the IC50 fell in the range of 50 to 200 nM. Take `CS(=O)(=O)CCn1ncc2c(Nc3ncc(C(F)(F)F)c(NC4CCC4)n3)cccc21` [Example 163, N^4-cyclobutyl-N^2-(1-(2-(methylsulfonyl)ethyl)-1H-indazol-4-yl)-5-(trifluoromethyl)pyrimidine-2,4-diamine]: the IC50 is below 50 nM. As to `CC(C)(C)n1ncc2c(Nc3ncc(C(F)(F)F)c(NC4CC4)n3)cccc21` [Example 196, N^2-(1-tert-butylindazol-4-yl)-N^4-cyclopropyl-5-(trifluoromethyl)pyrimidine-2,4-diamine], the 50% inhibitory concentration (IC50) is below 50 nM.

Regarding `CNc1nc(Nc2cc3[nH]ncc3cc2C)ncc1C(F)(F)F` [Example 2], the half-inhibitory concentration (IC50) is below 50 nM. For the compound `CNc1cc(Nc2nn(C)c3ncncc23)ncc1C(F)(F)F` [Example 128, N^4-methyl-N^2-(1-methyl-1H-pyrazolo[3,4-d]pyrimidin-3-yl)-5-(trifluoromethyl)pyridine-2,4-diamine], the IC50 was 50 to 200 nM. Compound `CNc1nc(Nc2ccc3cnn(C)c3c2C)ncc1C(F)(F)F` [Example 15, N2-(1,7-dimethyl-1H-indazol-6-yl)-N4-methyl-S-(trifluoromethyl)pyrimidine-2,4-diamine] displayed an IC50 of 50 to 200 nM. Compound `CCS(=O)(=O)CCn1ncc2c(Nc3ncc(C(F)(F)F)c(NC4CC4)n3)cccc21` [Example 171, N^4-cyclopropyl-N^2-(1-(2-(ethylsulfonyl)ethyl)-1H-indazol-4-yl)-5-(trifluoromethyl)pyrimidine-2,4-diamine] returned a 50% inhibitory concentration (IC50) below 50 nM. As for `CNc1nc(Nc2cccc3nccn23)ncc1C(F)(F)F` [Example 121, N^2-imidazo[1,2-a]pyridin-5-yl-N^4-methyl-5-(trifluoromethyl)pyrimidine-2,4-diamine], the figure is at least 200 nM. Consider `CNc1nc(Nc2cccc3c2cnn3CC(C)(C)O)nc2[nH]nc(Cl)c12` [Example 183, 1-[4-[[3-chloro-4-(methylamino)-1H-pyrazolo [3,4-d]pyrimidin-6-yl]amino]indazol-1-yl]-2-methyl-propan-2-ol], for which the concentration for half-maximal inhibition (IC50) is below 50 nM. `CNc1nc(Nc2cccc3c2cnn3C(C)(C)C#N)nc2[nH]cnc12` [Example 202, 2-methyl-2-[4-[[6-(methylamino)-9H-purin-2-yl]amino]indazol-1-yl]propanenitrile] showed an IC50 below 50 nM. For `CS(=O)(=O)n1ncc2c(Nc3ncc(C(F)(F)F)c(N[C@@H]4CCOC4)n3)cccc21` [Example 148, (R)—N^2-(1-(methylsulfonyl)-1H-indazol-4-yl)-N-(tetrahydrofuran-3-yl)-5-(trifluoromethyl)pyrimidine-2,4-diamine], the IC50 was below 50 nM. To `CNc1nc(Nc2c(C)[nH]c3ccccc23)ncc1C(F)(F)F` [Example 63, N4-methyl-N2-(2-methyl-1H-indol-3-yl)-5-(trifluoromethyl)pyrimidine-2,4-diamine] belongs 50 to 200 nM; to `CS(=O)(=O)n1ncc2c(Nc3ncc(C(F)(F)F)c(NC4CCC4)n3)cccc21` [Example 150, N^4-cyclobutyl-N^2-(1-methylsulfonylindazol-4-yl)-5-(trifluoromethyl)pyrimidine-2,4-diamine], below 50 nM. The compound `CNc1nc(Nc2cnn3ccccc23)ncc1C(F)(F)F` [Example 61, N4-methyl-N2-(pyrazolo[1,5-a]pyridin-3-yl)-5-(trifluoromethyl)pyrimidine-2,4-diamine] displayed an IC50 below 50 nM. `CNc1nc(Nc2ccc(OC)c3c2cnn3C)ncc1C(F)(F)F` [Example 47, N2-(7-methoxy-1-methyl-1H-indazol-4-yl)-N4-methyl-5-(trifluoromethyl) pyrimidine-2,4-diamine] registered an IC50 below 50 nM. As for `CNc1nc(Nc2cccc3cn[nH]c23)ncc1C(F)(F)F` [Example 75, N2-(1H-indazol-7-yl)-N4-methyl-5-(trifluoromethyl)pyrimidine-2,4-diamine], the figure is 50 to 200 nM. As for `CNc1nc(Nc2cccc3c2cnn3CCS(C)(=O)=O)ncc1C(F)(F)F` [Example 188, N^4-methyl-N^2-[1-(2-methylsulfonylethyl)indazol-4-yl]-5-(trifluoromethyl) pyrimidine-2,4-diamine], the IC50 was below 50 nM. Consider `CCOc1nc(Nc2cccc3c2cnn3C(C)(C)C#N)nc2[nH]cc(Cl)c12` [Example 162, 2-[4-[(5-chloro-4-ethoxy-7H-pyrrolo[2,3-d]pyrimidin-2-yl)amino]indazol-1-yl]-2-methyl-propanenitrile], for which the IC50 is below 50 nM. On to `CCn1ncc2c(Nc3ncc(C(F)(F)F)c(NC4CC4)n3)cccc21` [Example 99, N4-cyclopropyl-N2-(1-ethyl-1H-indazol-4-yl)-5-(trifluoromethyl)pyrimidine-2,4-diamine], for which the IC50 was below 50 nM. The compound `CNc1nc(Nc2cc(F)c3cn[nH]c3c2)ncc1C(F)(F)F` [Example 6, N2-(4-fluoro-1H-indazol-6-yl)-N4-methyl-5-(trifluoromethyl)pyrimidine-2,4-diamine] showed an IC50 below 50 nM. `CNc1nc(Nc2ccc(C3CCOCC3)c3c2cnn3C)ncc1C(F)(F)F` [Example 88, N4-methyl-N2-(1-methyl-7-(tetrahydro-2H-pyran-4-yl)-1H-indazol-4-yl)-5-(trifluoromethyl)pyrimidine-2,4-diamine] displayed an IC50 below 50 nM. As to `CNc1nc(Nc2ccc(C3=CCN(C)CC3)c3c2cnn3CC#N)ncc1C(F)(F)F` [Example 87, 2-(7-(1-methyl-1,2,3,6-tetrahydropyridin-4-yl)-4-((4-(methylamino)-5-(trifluoromethyl)pyrimidin-2-yl)amino)-11H-indazol-1-yl)acetonitrile], the half-maximal inhibitory concentration (IC50) is below 50 nM. As for `CCNc1nc(Nc2cccc3c2cnn3CC(F)F)nc2[nH]nc(C)c12` [Example 185, N^6-(1-(2,2-difluoroethyl)-1H-indazol-4-yl)-N^4-ethyl-3-methyl-1H-pyrazolo[3,4-d]pyrimidine-4,6-diamine], the figure is below 50 nM. The compound `CC(C)(C#N)n1ncc2c(Nc3ncc(C(F)(F)F)c(NC4CC4)n3)ccnc21` [Example 189, 2-(4-((4-(cyclopropylamino)-5-(trifluoromethyl)pyrimidin-2-yl)amino)-1H-pyrazolo[3,4-b]pyridin-yl)-2-methylpropanenitrile] showed an IC50 below 50 nM. With `CNc1nc(Nc2ccc(C)c3[nH]ncc23)ncc1C(F)(F)F` [Example 26, N4-methyl-N2-(7-methyl-1H-indazol-4-yl)-5-(trifluoromethyl)pyrimidine-2,4-diamine], the half-maximal inhibitory concentration (IC50) was below 50 nM.

As for `CNc1nc(Nc2ccc(C3=CCOCC3)c3c2cnn3CC#N)ncc1C(F)(F)F` [Example 83, 2-(7-(3,6-dihydro-2H-pyran-4-yl)-4-((4-(methylamino)-5-(trifluoromethyl)pyrimidin-2-yl)amino)-1H-indazol-1-yl)acetonitrile], the IC50 is below 50 nM.
